Reference: patent US8030498B2, “Benzoylpyrazole compounds and herbicides containing them” (Ishihara Sangyo Kaisha, Ltd., priority 2005, dated 2011)

Columns and labels:
[1] = test system: redroot pigweed (Amaranthus retroflexus L.); experiment: Test Example 1: foliar treatment, growth inhibition rate, redroot pigweed; type: in vivo; conditions: 31 g/ha active ingredient, visually observed 17th to 23rd day after application
Procedure, shortened: (§1)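 Visual scoring of growth inhibition, 0% (untreated) to 100% (complete kill), on days 17–23 following post-emergence spray of formulated compound in water (500 L/ha, 0.1 vol % spreader); plants treated at set leaf stages, e.g. corn 2.0–3.5, wheat 1.7–3.4.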

[2] = test system: barnyardgrass (Echinochloa crus-galli L.); experiment: Test Example 1: foliar treatment, growth inhibition rate, barnyardgrass; type: in vivo; conditions: 31 g/ha active ingredient, visually observed 17th to 23rd day after application; for pest or weed control at 31 g/ha: Echinochloa crus-galli
Procedure, shortened: (§2)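 Potted upland soil; compounds as wettable powders or emulsifiable concentrates diluted in water at 500 L/ha plus 0.1 vol % spreader, foliar-sprayed at defined leaf stages (rice 1.0–2.5, wheat 1.7–3.4, corn 2.0–3.5, greenfoxtail 1.0–3.0). Growth inhibition (0–100%) scored visually 17–23 days after application.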

[3] = test system: velvetleaf; experiment: Test Example 2: soil application on the day after sowing, growth inhibition rate, velvetleaf; type: in vivo, Abutilon theophrasti MEDIC.; conditions: 250 g/ha active ingredient, observed on 19th to 24th day; for inhibition at 250 g/ha: Abutilon theophrasti
Procedure, shortened: (§3)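 Upland soil pots sown with crop and weed seeds; next day wettable powder or emulsifiable concentrate at prescribed active-ingredient amounts, diluted to 500 L/ha water, sprayed onto soil. Growth inhibition scored visually 19–24 days later, 0 (as untreated) to 100% (complete kill).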

[4] = test system: crabgrass; experiment: Test Example 2: soil application on the day after sowing, growth inhibition rate, crabgrass; type: in vivo, Digitaria sanguinalis L.; conditions: 250 g/ha active ingredient, observed on 19th to 24th day; for inhibition at 250 g/ha: Digitaria sanguinalis
Procedure, shortened: as §3

[5] = test system: corn (Zea mays L.); experiment: Test Example 1: foliar treatment, growth inhibition rate, corn; type: in vivo; conditions: 31 g/ha active ingredient, visually observed 17th to 23rd day after application; for pest or weed control at 31 g/ha: Zea mays
Procedure, shortened: (§4)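 Visual growth inhibition rating, 0% (as untreated) to 100% (complete kill), taken 17–23 d after foliar spray. Compound was formulated as wettable powder or EC, diluted to 500 L/ha water with 0.1 vol % agricultural spreader, and applied to pot-grown seedlings of corn (2.0–3.5 leaf), greenfoxtail (1.0–3.0), rice (1.0–2.5) and wheat (1.7–3.4).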

[6] = test system: soybean (Glycine max Merr.); experiment: Test Example 1: foliar treatment, growth inhibition rate, soybean; type: in vivo; conditions: 31 g/ha active ingredient, visually observed 17th to 23rd day after application
Procedure, shortened: as §1

[7] = test system: wheat; experiment: Test Example 2: soil application on the day after sowing, growth inhibition rate, wheat; type: in vivo, Triticum spp.; conditions: 250 g/ha active ingredient, observed on 19th to 24th day; for inhibition at 250 g/ha: Triticum aestivum
Description: Upland field soil was put into a 1/170,000 hectare pot, and seeds of various plants (barnyardgrass, crabgrass, greenfoxtail, redroot pigweed, prickly sida, velvetleaf, rice, wheat, corn and soybean) were sown. On the day after sowing, wettable powders or emulsifiable concentrates of the compounds of the present invention prepared in accordance with a conventional preparation method, were weighed so that the active ingredients became the prescribed amounts, and diluted with water in an amount corresponding to 500 liter per 1 hectare, followed by soil application with a small sprayer. On the 19th to 24th day after the application, the state of growth of the respective plants was visually observed, and the herbicidal effect was evaluated in accordance with a growth inhibition rate (%) of from 0 (equivalent to the non-treated area) to 100% (complete kill).

[8] = test system: greenfoxtail; experiment: Test Example 2: soil application on the day after sowing, growth inhibition rate, greenfoxtail; type: in vivo, Setaria viridis L.; conditions: 250 g/ha active ingredient, observed on 19th to 24th day; for inhibition at 250 g/ha: Setaria viridis
Procedure, shortened: as §3

[9] = test system: wheat (Triticum spp.); experiment: Test Example 1: foliar treatment, growth inhibition rate, wheat; type: in vivo; conditions: 31 g/ha active ingredient, visually observed 17th to 23rd day after application; for pest or weed control at 31 g/ha: Triticum
Procedure, shortened: as §4

[10] = test system: rice; experiment: Test Example 2: soil application on the day after sowing, growth inhibition rate, rice; type: in vivo, Oryza sativa L.; conditions: 250 g/ha active ingredient, observed on 19th to 24th day; for inhibition at 250 g/ha: Oryza sativa
Procedure, shortened: as §3

[11] = test system: greenfoxtail (Setaria viridis L.); experiment: Test Example 1: foliar treatment, growth inhibition rate, greenfoxtail; type: in vivo; conditions: 31 g/ha active ingredient, visually observed 17th to 23rd day after application; for pest or weed control at 31 g/ha: Setaria viridis
Procedure, shortened: as §4

[12] = test system: redroot pigweed; experiment: Test Example 2: soil application on the day after sowing, growth inhibition rate, redroot pigweed; type: in vivo, Amaranthus retroflexus L.; conditions: 250 g/ha active ingredient, observed on 19th to 24th day; for inhibition at 250 g/ha: Amaranthus retroflexus
Procedure, shortened: as §3

[13] = test system: velvetleaf (Abutilon theophrasti MEDIC.); experiment: Test Example 1: foliar treatment, growth inhibition rate, velvetleaf; type: in vivo; conditions: 31 g/ha active ingredient, visually observed 17th to 23rd day after application; for pest or weed control at 31 g/ha: Abutilon theophrasti
Procedure, shortened: as §2

[14] = test system: corn; experiment: Test Example 2: soil application on the day after sowing, growth inhibition rate, corn; type: in vivo, Zea mays L.; conditions: 250 g/ha active ingredient, observed on 19th to 24th day; for inhibition at 250 g/ha: Zea mays
Procedure, shortened: as §3

[15] = test system: prickly sida; experiment: Test Example 2: soil application on the day after sowing, growth inhibition rate, prickly sida; type: in vivo, Sida spinosa L.; conditions: 250 g/ha active ingredient, observed on 19th to 24th day; for inhibition at 250 g/ha: Sida spinosa
Procedure, shortened: as §3

[16] = test system: crabgrass (Digitaria sanguinalis L.); experiment: Test Example 1: foliar treatment, growth inhibition rate, crabgrass; type: in vivo; conditions: 31 g/ha active ingredient, visually observed 17th to 23rd day after application; for pest or weed control at 31 g/ha: Digitaria sanguinalis
Procedure, shortened: as §1

[17] = test system: barnyardgrass; experiment: Test Example 2: soil application on the day after sowing, growth inhibition rate, barnyardgrass; type: in vivo, Echinochloa crus-galli L.; conditions: 250 g/ha active ingredient, observed on 19th to 24th day; for inhibition at 250 g/ha: Echinochloa crus-galli
Procedure, shortened: as §3

[18] = test system: rice (Oryza sativa L.); experiment: Test Example 1: foliar treatment, growth inhibition rate, rice; type: in vivo; conditions: 31 g/ha active ingredient, visually observed 17th to 23rd day after application; for pest or weed control at 31 g/ha: Oryza sativa
Procedure, shortened: as §4

[19] = test system: soybean; experiment: Test Example 2: soil application on the day after sowing, growth inhibition rate, soybean; type: in vivo, Glycine max Merr.; conditions: 250 g/ha active ingredient, observed on 19th to 24th day; for inhibition at 250 g/ha: Glycine max
Procedure, shortened: as §3

[20] = test system: prickly sida (Sida spinosa L.); experiment: Test Example 1: foliar treatment, growth inhibition rate, prickly sida; type: in vivo; conditions: 31 g/ha active ingredient, visually observed 17th to 23rd day after application
Procedure, shortened: as §1

Row | Compound | Growth inhibition rate (%) redroot pigweed [1] [%] | Growth inhibition rate (%) Barnyardgrass [2] [%] | Growth inhibition rate (%) Velvetleaf [3] [%] | Growth inhibition rate (%) Crabgrass [4] [%] | Growth inhibition rate (%) Corn [5] [%] | Growth inhibition rate (%) Soybean [6] [%] | Growth inhibition rate (%) Wheat [7] [%] | Growth inhibition rate (%) Greenfoxtail [8] [%] | Growth inhibition rate (%) Wheat [9] [%] | Growth inhibition rate (%) Rice [10] [%] | Growth inhibition rate (%) Greenfoxtail [11] [%] | Growth inhibition rate (%) redroot pigweed [12] [%] | Growth inhibition rate (%) Velvetleaf [13] [%] | Growth inhibition rate (%) Corn [14] [%] | Growth inhibition rate (%) Prickly sida [15] [%] | Growth inhibition rate (%) Crabgrass [16] [%] | Growth inhibition rate (%) Barnyardgrass [17] [%] | Growth inhibition rate (%) Rice [18] [%] | Growth inhibition rate (%) Soybean [19] [%] | other results
1 | CCSC(=O)Oc1c(C(=O)c2ccc(S(C)(=O)=O)c(OC(C)C)c2C)cnn1C [compound 37] | 100 | 95 | 30 | 80 | 0 | 70 | 0 | 60 | 0 | 10 | 100 | 50 | 95 | 0 | 10 | 80 | 60 | 70 | 0 | 
2 | CCSC(=O)Oc1c(C(=O)c2ccc(S(C)(=O)=O)c(CC(=O)OC)c2C)cnn1C [compound 64] | 80 | 100 | 30 | 95 | 0 |  | 0 | 50 | 0 | 70 | 65 | 80 | 85 | 0 | 60 |  | 90 | 70 | 0 | Growth inhibition rate (%) Prickly sida [20]: 60%
3 | CCOC(=O)c1c(S(C)(=O)=O)ccc(C(=O)c2cnn(CC)c2OC(=O)SC)c1C [compound 62] | 100 | 100 | 90 | 95 | 10 | 90 | 30 | 95 | 50 | 70 | 100 | 100 | 95 | 0 | 90 | 100 | 80 | 80 | 0 | 
4 | CCSC(=O)Oc1c(C(=O)c2ccc(S(C)(=O)=O)c(C3=NOCC3)c2C)cnn1C [Compound No. 39, 5-(ethylthio)carbonyloxy-1-methylpyrazol-4-yl 2-methyl-4-(methylsulfonyl)-3-(4,5-dihydroisoxazol-3-yl)phenyl ketone] | 80 |  |  |  |  | 95 |  |  |  |  |  |  |  |  |  |  |  |  |  | pest or weed control at 31 g/ha [2]: 95%; inhibition at 250 g/ha [3]: 60%; inhibition at 250 g/ha [4]: 100%; pest or weed control at 31 g/ha [5]: 0%; inhibition at 250 g/ha [7]: 0%; inhibition at 250 g/ha [8]: 80%; pest or weed control at 31 g/ha [9]: 40%; inhibition at 250 g/ha [10]: 80%; pest or weed control at 31 g/ha [11]: 95%; inhibition at 250 g/ha [12]: 100%; pest or weed control at 31 g/ha [13]: 90%; inhibition at 250 g/ha [14]: 10%; inhibition at 250 g/ha [15]: 70%; pest or weed control at 31 g/ha [16]: 90%; inhibition at 250 g/ha [17]: 70%; pest or weed control at 31 g/ha [18]: 95%; inhibition at 250 g/ha [19]: 0%
5 | CCSC(=O)Oc1c(C(=O)c2ccc(S(C)(=O)=O)c(OCCOC)c2C)cnn1C [Compound No. 55, 5-(ethylthio)carbonyloxy-1-methylpyrazol-4-yl 3-(2-methoxyethoxy)-2-methyl-4-(methylsulfonyl)phenyl ketone] | 95 |  |  |  |  | 95 |  |  |  |  |  |  |  |  |  |  |  |  |  | pest or weed control at 31 g/ha [2]: 100%; inhibition at 250 g/ha [3]: 95%; inhibition at 250 g/ha [4]: 100%; pest or weed control at 31 g/ha [5]: 40%; inhibition at 250 g/ha [7]: 0%; inhibition at 250 g/ha [8]: 100%; pest or weed control at 31 g/ha [9]: 10%; inhibition at 250 g/ha [10]: 70%; pest or weed control at 31 g/ha [11]: 100%; inhibition at 250 g/ha [12]: 100%; pest or weed control at 31 g/ha [13]: 100%; inhibition at 250 g/ha [14]: 0%; inhibition at 250 g/ha [15]: 70%; pest or weed control at 31 g/ha [16]: 100%; inhibition at 250 g/ha [17]: 100%; pest or weed control at 31 g/ha [18]: 60%; inhibition at 250 g/ha [19]: 0%
6 | CCOc1c(S(C)(=O)=O)ccc(C(=O)c2cnn(C)c2OC(=O)SCC)c1C [compound 36] | 100 | 100 | 50 | 100 | 10 |  | 0 | 100 | 50 | 80 | 100 | 100 | 100 | 0 | 60 | 98 | 100 | 70 | 30 | Growth inhibition rate (%) Prickly sida [20]: 100%
7 | CCSC(=O)Oc1c(C(=O)c2ccc(S(C)(=O)=O)c(COC)c2C)cnn1C [compound 63] | 95 | 95 | 70 | 95 | 0 | 95 | 0 | 90 | 10 | 80 | 100 | 90 | 95 | 0 | 80 | 98 | 95 | 90 | 0 | 
